ChEMBL document CHEMBL1136098, “Semisynthetic preparation of amentoflavone: A negative modulator at GABA(A) receptors” (Bioorg Med Chem Lett, 2003)

How the values were obtained:
[1] = target: Delta-type opioid receptor (Sus scrofa, UniProt P79291); experiment: Binding affinity (in vitro) against Opioid receptor delta 1 using radio-ligand binding assay
[2] = target: GABA-A receptor; anion channel; experiment: Binding affinity for human cloned GABA-A benzodiazepine receptor; assay type: protein-complex assay
[3] = target: GABA-A receptor; anion channel; experiment: Inhibition of [3H]flunitrazepam binding to rat brain GABA-A benzodiazepine receptor
[4] = target: GABA-A receptor; anion channel; experiment: Binding affinity for GABA-A benzodiazepine receptor; assay type: protein-complex assay
[5] = target: T1, GABA-A receptor; alpha-1/beta-2/gamma-2 (Homo sapiens, UniProt P14867+P18507+P47870); experiment: Effective concentration against human recombinant GABA-A receptor alpha-1-beta-2-gamma-2 subunits expressed in Xenopus oocytes; assay type: cell-based, Oocyte
T1 sequence (P14867 whole entry): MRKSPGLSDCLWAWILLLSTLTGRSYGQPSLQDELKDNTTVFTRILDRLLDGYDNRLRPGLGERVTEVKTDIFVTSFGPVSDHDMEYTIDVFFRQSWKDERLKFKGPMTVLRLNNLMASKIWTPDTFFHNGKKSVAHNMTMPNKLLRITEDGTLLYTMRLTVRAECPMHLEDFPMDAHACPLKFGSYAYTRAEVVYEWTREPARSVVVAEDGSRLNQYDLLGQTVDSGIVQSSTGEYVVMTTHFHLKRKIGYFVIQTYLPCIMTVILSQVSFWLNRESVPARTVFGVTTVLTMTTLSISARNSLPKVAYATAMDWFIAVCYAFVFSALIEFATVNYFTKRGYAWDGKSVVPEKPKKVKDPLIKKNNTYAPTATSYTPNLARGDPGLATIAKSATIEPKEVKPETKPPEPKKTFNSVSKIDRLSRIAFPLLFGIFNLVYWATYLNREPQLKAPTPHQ
T1 sequence (P47870 whole entry): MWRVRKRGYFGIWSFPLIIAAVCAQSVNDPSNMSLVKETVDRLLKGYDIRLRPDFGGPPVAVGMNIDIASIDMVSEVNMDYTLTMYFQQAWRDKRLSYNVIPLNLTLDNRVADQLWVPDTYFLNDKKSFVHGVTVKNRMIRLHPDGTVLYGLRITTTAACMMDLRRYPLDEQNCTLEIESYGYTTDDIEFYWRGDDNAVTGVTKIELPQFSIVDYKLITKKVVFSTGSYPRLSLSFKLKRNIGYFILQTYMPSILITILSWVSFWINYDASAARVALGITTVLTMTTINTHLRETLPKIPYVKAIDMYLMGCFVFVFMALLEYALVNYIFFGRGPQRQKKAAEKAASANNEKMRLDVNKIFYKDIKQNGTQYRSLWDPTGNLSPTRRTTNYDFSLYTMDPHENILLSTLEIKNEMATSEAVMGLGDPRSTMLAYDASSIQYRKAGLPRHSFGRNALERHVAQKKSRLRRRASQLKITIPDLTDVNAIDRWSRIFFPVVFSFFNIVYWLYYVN
T1 sequence (P18507 whole entry): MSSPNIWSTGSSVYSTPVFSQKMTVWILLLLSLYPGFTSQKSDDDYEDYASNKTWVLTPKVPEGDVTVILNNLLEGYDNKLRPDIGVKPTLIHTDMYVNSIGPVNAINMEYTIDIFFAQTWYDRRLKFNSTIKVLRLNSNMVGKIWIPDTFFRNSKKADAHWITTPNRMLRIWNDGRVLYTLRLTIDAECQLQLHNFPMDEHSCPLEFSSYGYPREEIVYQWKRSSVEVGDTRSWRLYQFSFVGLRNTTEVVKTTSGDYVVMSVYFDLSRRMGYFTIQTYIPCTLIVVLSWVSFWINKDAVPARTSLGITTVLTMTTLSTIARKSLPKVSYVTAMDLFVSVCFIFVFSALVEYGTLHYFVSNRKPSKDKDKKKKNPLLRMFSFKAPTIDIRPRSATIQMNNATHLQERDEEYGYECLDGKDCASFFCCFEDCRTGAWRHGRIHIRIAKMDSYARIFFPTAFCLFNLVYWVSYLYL

[6] = target: 5-hydroxytryptamine receptor 1D (Sus scrofa, UniProt P79400); experiment: Binding affinity (in vitro) against 5-hydroxytryptamine 1D receptor alpha using radio-ligand binding assay
[7] = target: D(3) dopamine receptor (Homo sapiens, UniProt P35462); experiment: Binding affinity (in vitro) against Dopamine receptor D3 using radio-ligand binding assay; parameters: species or system Sus scrofa
Sequence of D(3) dopamine receptor (P35462 whole entry): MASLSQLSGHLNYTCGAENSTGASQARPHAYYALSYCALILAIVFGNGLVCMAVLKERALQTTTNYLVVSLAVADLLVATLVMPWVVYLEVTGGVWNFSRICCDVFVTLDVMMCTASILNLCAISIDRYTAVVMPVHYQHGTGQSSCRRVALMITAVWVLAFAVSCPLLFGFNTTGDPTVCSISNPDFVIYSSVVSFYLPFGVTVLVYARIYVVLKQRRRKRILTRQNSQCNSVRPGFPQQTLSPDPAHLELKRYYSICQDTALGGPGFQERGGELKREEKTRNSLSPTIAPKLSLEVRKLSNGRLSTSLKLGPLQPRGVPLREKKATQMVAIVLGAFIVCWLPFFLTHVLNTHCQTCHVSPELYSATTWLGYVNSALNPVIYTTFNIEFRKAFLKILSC

Sequence of 5-hydroxytryptamine receptor 1D (P79400 whole entry): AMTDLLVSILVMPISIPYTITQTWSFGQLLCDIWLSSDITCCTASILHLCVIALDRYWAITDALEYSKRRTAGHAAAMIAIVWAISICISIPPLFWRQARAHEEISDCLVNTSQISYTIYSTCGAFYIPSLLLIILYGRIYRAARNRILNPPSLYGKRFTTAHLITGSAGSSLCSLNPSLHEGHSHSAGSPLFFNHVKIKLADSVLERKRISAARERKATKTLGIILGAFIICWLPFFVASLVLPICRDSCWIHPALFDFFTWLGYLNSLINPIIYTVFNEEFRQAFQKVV
Sequence of Delta-type opioid receptor (P79291 whole entry): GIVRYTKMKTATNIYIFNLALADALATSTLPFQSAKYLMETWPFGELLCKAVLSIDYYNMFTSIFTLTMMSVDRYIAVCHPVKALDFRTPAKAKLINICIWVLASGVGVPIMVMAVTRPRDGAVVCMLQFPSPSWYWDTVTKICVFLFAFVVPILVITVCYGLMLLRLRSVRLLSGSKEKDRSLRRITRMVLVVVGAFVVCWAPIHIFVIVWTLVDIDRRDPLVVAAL

Structure (SMILES): O=c1cc(-c2ccc(O)c(-c3c(O)cc(O)c4c(=O)cc(-c5ccc(O)cc5)oc34)c2)oc2cc(O)cc(O)c12 [AMENTOFLAVONE]
- Ki [1]: 36.5 nM
- Ki [2]: 6 nM
- IC50 [3]: 14.9 nM
- Ki [4]: 6 nM
- EC50 [5]: 3600 nM
- Ki [6]: 4090 nM
- Ki [7]: 1240 nM
